Where a SMILES comes first, the peptide text is derived from it. Side-chain parts run from the residue outwards. [ ]: non-standard residue; d: D form. The star is where a group is joined. Shikimoyl = O=C(C1=C[C@@H](O)[C@@H](O)[C@H](O)C1)*; dPhe(4-Cl) = N[C@H](Cc1ccc(Cl)cc1)C(=O)O; d2Nal = N[C@H](Cc1ccc2ccccc2c1)C(=O)O; Lys(iPr) = CC(C)NCCCC[C@H](N)C(=O)O; NMeY = CN[C@@H](Cc1ccc(O)cc1)C(=O)O; Thiophene2carbonyl = O=C(c1cccs1)*; d3Pal = N[C@H](Cc1cccnc1)C(=O)O; Nicotinoyl = O=C(c1cccnc1)*; dOrn = NCCC[C@@H](N)C(=O)O; 2Furoyl = O=C(c1ccco1)*; Ahx = NCCCCCC(=O)O; azaGly = NNC(=O)O; βAla = NCCC(=O)O; Sar = CNCC(=O)O
Biological target: T1, LHRH receptor (Rattus norvegicus, UniProt P30969)
T1 construct: endogenous in cells
T1 sequence (P30969 1-327): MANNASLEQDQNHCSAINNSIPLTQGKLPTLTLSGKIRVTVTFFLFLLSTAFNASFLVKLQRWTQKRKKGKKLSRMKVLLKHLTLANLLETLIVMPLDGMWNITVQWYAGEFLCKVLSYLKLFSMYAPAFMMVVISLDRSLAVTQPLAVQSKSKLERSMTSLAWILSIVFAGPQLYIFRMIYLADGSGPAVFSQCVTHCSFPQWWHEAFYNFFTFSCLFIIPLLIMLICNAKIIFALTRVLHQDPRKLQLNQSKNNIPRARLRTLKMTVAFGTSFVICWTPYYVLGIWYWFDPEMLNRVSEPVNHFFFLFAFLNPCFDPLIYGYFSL
Experiment: in vitro LHRH antagonist potency (pA2) against the agonist leuprolide
Type: cell-based
Settings: negative logarithm of the antagonist concentration which shifts the response curve produced by the agonist leuprolide to two-fold higher concentration
Description: Representative compounds of the present invention were evaluated in in vitro tests for receptor binding (pKI) and for LHRH antagonist potency (pA2). The tests employed the methods detailed in F. Haviv, et al., J. Med. Chem., 32: 2340-2344 (1989). The receptor binding affinities (pKI) are the negative logarithms of the equilibtirum dissociation constants (pA2) are the negative logarithms of the concentration of antagonist which shift the response curve roduced by the agonist leuprolide to two-fold higher concentration. (Leuprolide is the LHRH agonist having the structure 5-oxo-Pro^1 -His^2 -Trp^3 -Ser^4 -Tyr^5 -D-Leu^6 -Leu^7 -Arg^8 -Pro^9 -NHEt and is disclosed and claimed in U.S. Pat. No. 4,005,063.) Typically pA2 values of 9.5 or greater are indicative of good LHRH antagonist potency.

Structure (SMILES) | Kb
CC(=O)N[C@H](Cc1ccc2ccccc2c1)C(=O)N[C@H](Cc1ccc(Cl)cc1)C(=O)N[C@H](Cc1cccnc1)C(=O)N[C@@H](CO)C(=O)N(C)[C@@H](Cc1ccc(O)cc1)C(=O)N[C@H](CCCNC(=O)CNC(=O)c1cccnc1)C(=O)N[C@@H](CC(C)C)C(=O)N[C@@H](CCCCNC(C)C)C(=O)N1CCC[C@H]1C(=O)N[C@H](C)C(N)=O [Example 54, NAc-D2Nal^1 -D4ClPhe^2 -D3Pal^3 -Ser^4 -NMeTyr^5 -DOrn(N-epsilon-Gly-Nicotinyl)^6 -Leu^7 -Lys(N-epsilon-Isopropyl)^8 -Pro^9 -DAla^10 NH2] (Ac-[d2Nal][dPhe(4-Cl)][d3Pal]S[NMeY][dOrn]([Gly-Nicotinoyl])L[Lys(iPr)]P[dA]-NH2) | 0.0302 nM
CC(=O)N[C@H](Cc1ccc2ccccc2c1)C(=O)N[C@H](Cc1ccc(Cl)cc1)C(=O)N[C@H](Cc1cccnc1)C(=O)N[C@@H](CO)C(=O)N(C)[C@@H](Cc1ccc(O)cc1)C(=O)N[C@H](CCCCNC(=O)CCCCCNC(=O)CCNC(=O)c1cccnc1)C(=O)N[C@@H](CC(C)C)C(=O)N[C@@H](CCCCNC(C)C)C(=O)N1CCC[C@H]1C(=O)N[C@H](C)C(N)=O [Example 19a, NAc-D2Nal-D4ClPhe^2 -D3Pal^3 -Ser^4 -NMeTyr^5 -DLys[N-epsilon-(N'-epsilon-Aminocaproyl)(N"-beta-Alanyl)-Nicotinyl]^6-Leu^7 -Lys(N-epsilon-Isopropyl)^8 -Pro^9 -DAla^10 NH2] (Ac-[d2Nal][dPhe(4-Cl)][d3Pal]S[NMeY][dK]([Ahx-βAla-Nicotinoyl])L[Lys(iPr)]P[dA]-NH2) | 0.024 nM
CC(=O)N[C@H](Cc1ccc2ccccc2c1)C(=O)N[C@H](Cc1ccc(Cl)cc1)C(=O)N[C@H](Cc1cccnc1)C(=O)N[C@@H](CO)C(=O)N(C)[C@@H](Cc1ccc(O)cc1)C(=O)N[C@H](CCCCNC(=O)CNC(=O)C1=C[C@@H](O)[C@@H](O)[C@H](O)C1)C(=O)N[C@@H](CC(C)C)C(=O)N[C@@H](CCCNC(=N)N)C(=O)N1CCC[C@H]1C(=O)N[C@H](C)C(N)=O [Example 17, NAc-D2Nal^1 -D4ClPhe^2 -D3Pal^3 -Ser^4 -NMeTyr^5 -DLys(N-epsilon-Gly-Shikimyl)^6 -Leu^7 -Arg^8 -Pro^9 -DAla^10 NH2] (Ac-[d2Nal][dPhe(4-Cl)][d3Pal]S[NMeY][dK]([Gly-Shikimoyl])LRP[dA]-NH2) | 0.00724 nM
CC(=O)N[C@H](Cc1ccc2ccccc2c1)C(=O)N[C@H](Cc1ccc(Cl)cc1)C(=O)N[C@H](Cc1cccnc1)C(=O)N[C@@H](CO)C(=O)N(C)[C@@H](Cc1ccc(O)cc1)C(=O)N[C@H](CCCCNC(=O)NNC(=O)c1ccco1)C(=O)N[C@@H](CC(C)C)C(=O)N[C@@H](CCCCNC(C)C)C(=O)N1CCC[C@H]1C(=O)N(C)CC(N)=O [Example 59, NAc-D2Nal^1 -D4ClPhe^2 -D3Pal^3 -Ser^4 -NMeTyr^5 -DLys(N-epsilon-Azagly-Fur-2-oyl)^6 -Leu^7 -Lys(N-epsilon-Isopropyl)^8 -Pro^9 -Sar^10 NH2] (Ac-[d2Nal][dPhe(4-Cl)][d3Pal]S[NMeY][dK]([azaGly-2Furoyl])L[Lys(iPr)]P[Sar]-NH2) | 0.0363 nM
CC(=O)N[C@H](Cc1ccc2ccccc2c1)C(=O)N[C@H](Cc1ccc(Cl)cc1)C(=O)N[C@H](Cc1cccnc1)C(=O)N[C@@H](CO)C(=O)N(C)[C@@H](Cc1ccc(O)cc1)C(=O)N[C@H](CCCCNC(=O)NNC(=O)c1cccs1)C(=O)N[C@@H](CC(C)C)C(=O)N[C@@H](CCCCNC(C)C)C(=O)N1CCC[C@H]1C(=O)N[C@H](C)C(N)=O [Example 5b, NAc-D2Nal^1 -D4ClPhe^2 -D3Pal^3 -Ser^4 -NMeTyr^5 -DLys(N-epsilon-Azagly-2-Thienylcarbonyl)^6 -Leu^7 -Lys(N-epsilon-Isopropyl)^8 -Pro^9 -DAla^10 NH2] (Ac-[d2Nal][dPhe(4-Cl)][d3Pal]S[NMeY][dK]([azaGly-Thiophene2carbonyl])L[Lys(iPr)]P[dA]-NH2) | 0.00295 nM

Reference: patent US5698522A, “6-position modified decapeptide LHRH antagonists” (Abbott Laboratories, priority 1995, dated 1997)
